Experimental findings from patent US10093628B2, “Competitive PPAR-gamma antagonists” (FRAUNHOFER-GESELLSCHAFT ZUR FÖRDERUNG DER ANGEWANDTEN …, priority 2014, dated 2018) are described below.

Data set [1] deals with T1, PPARγ (Homo sapiens, UniProt P37231).
T1 sequence (P37231 238-503 limits assumed): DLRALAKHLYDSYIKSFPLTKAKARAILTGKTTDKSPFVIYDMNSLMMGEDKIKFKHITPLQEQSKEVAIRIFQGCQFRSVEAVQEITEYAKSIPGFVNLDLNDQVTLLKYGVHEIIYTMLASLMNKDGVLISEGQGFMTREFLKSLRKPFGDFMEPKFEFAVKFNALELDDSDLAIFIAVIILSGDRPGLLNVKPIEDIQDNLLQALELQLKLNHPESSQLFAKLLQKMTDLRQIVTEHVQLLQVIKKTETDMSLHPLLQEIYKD
Description: PPARγ-dependent transactivation assay in HEK293T cells. The note with it: for antagonistic effects on the time-course of the response to agonist stimulation: 10 μM compound, 1 μM rosiglitazone; for inhibition of the rosiglitazone-induced transactivation of PPARγ: 1 or 10 μM compound with 0.1-10 μM rosiglitazone. Type of data set: cell-based. Also noted: the vector pFA-PPARγ-LBD-GAL4-DBD encoding the hybrid protein PPARγ-LBD-GAL4-DBD; expressed in transfected cells; host or cells: HEK293T cells; (transient transfection). As to the method: For the PPARγ-dependent transactivation assay, 1×10^4 HEK293T cells per well were seeded in 96-well plates and cultured overnight as described above to allow attachment of the HEK293T cells. The next day, the HEK293T cells were transiently transfected using the JetPRIME™ transfection reagent (PEQLAB Biotechnologie GmbH, Erlangen, Germany), as described by the manufacturer, with 0.01 μg per well pFA-PPARγ-LBD-GAL4-DBD, kindly provided by Prof. Dr. Manfred Schubert-Zsilavecz (Institute of Pharmaceutical Chemistry, Department of Biochemistry, Chemistry and Pharmacy, Goethe-University Frankfurt am Main, Germany), 0.09 μg per well pFR-Luc (Stratagene, La Jolla, USA) and 0.0005 μg per well pRL-CMV (Promega GmbH, Mannheim, Germany). After 4 h, the transfection medium was replaced and the HEK293T cells were cultured in fresh growth medium for another 24 h. For the transient transfection of 1×10^6 HuT-78 cells and Jurkat T cells per well, the SuperFect™ transfection reagent (QIAGEN GmbH, Hilden, Germany) was used as described by the producer with 0.2 μg per well pFA-PPARγ-LBD-GAL4-DBD, 0.8 μg per well pFR-Luc and 0.05 μg per well pRL-CMV. After 24 h, 1 ml fresh growth medium was added and the cells were cultured for another 48 h. The PPARγ-dependent transactivation assay in HEK293T cells using a 96-well plate format was performed in quadruple and in HuT-78 cells and Jurkat T cells using a 12-well plate format in triplicate.
(§1) The PPARγ-dependent transactivation assay is based on the vector pFA-PPARγ-LBD-GAL4-DBD encoding the hybrid protein PPARγ-LBD-GAL4-DBD and the reporter vector pFR-Luc, carrying a GAL4-responsive element in front of the Firefly luciferase gene. These two vectors were co-transfected, as described above, in combination with the control vector pRL-CMV, encoding Renilla luciferase, to normalize Firefly luciferase activity for transfection efficiency. […] Transactivation was analysed using a 96-well plate format in a Mithras LB940 multimode reader (Berthold Technologies, Bad Wildbad, Germany). The IC50 value for MTTB was determined by fitting the data to a sigmoidal dose-response curve using the GraphPad Software Prism (La Jolla, USA).
Firefly luciferase luminescence values and control Renilla luciferase luminescence values were determined in each sample. The ratios of Firefly to Renilla luciferase luminescence were used to normalize luciferase activity values.

The test system of data set [2] is HEK293T cells. As to the kind of experiment: Intracellular accumulation by LC-MS/MS, HEK293T cells. Type of data set: in vitro ADME, human. The source says:
(§2) Accumulation was expressed as a percentage of the ratio of intracellular to extracellular concentration (I/E).

For data set [3], the system named is Jurkat T cells. As to the kind of experiment: Intracellular accumulation by LC-MS/MS, Jurkat T cells. The data set is classed as in vitro ADME.
Text: as §2

Data set [4] concerns HuT-78 cells. As to the kind of experiment: Cell viability, MTT assay, HuT-78 cells. Type of data set: cell-based, human. As to the method:
(§3) HuT-78 cells, Jurkat T cells and HEK293T cells, were seeded in 96-well plates at a density of 5×10^4 cells per well and cultured overnight as described above to allow attachment of the HEK293T cells. […] As control, DMSO alone was used. After 24 h stimulation, 3-(4, 5-dimethylthiazol-2-yl)-2, 5-diphenyltetrazolium bromide (MTT) solution (5 mg ml-1 in phosphate buffered saline (PBS)) was added and the cells were incubated for two more hours at 37° C. (Mosmann, 1983). Afterwards, the cells were lysed with MTT lysis buffer. Following cell lysis, cell viability was measured at an absorbance of 560 nm in a Mithras LB940 multimode reader. The cell viability studies using a 96-well plate format were performed in octet.
(Tetrazolium assays rely on reduction of a dye to a coloured formazan, in cell work by metabolically active cells.)

Data set [5] concerns the target T1, PPARγ. Description: PPARγ-dependent transactivation assay in Jurkat T cells. The data set is classed as cell-based. Details: the vector pFA-PPARγ-LBD-GAL4-DBD encoding the hybrid protein PPARγ-LBD-GAL4-DBD; expressed in transfected cells; host or cells: HEK293T cells; Jurkat T cells (transient transfection). As to conditions: for inhibition of the rosiglitazone-induced transactivation of PPARγ / agonistic effects (transactivation of PPARγ by the compound alone): 24 h; for inhibition of the rosiglitazone-induced transactivation of PPARγ: 1 or 10 μM compound with 0.1-10 μM rosiglitazone. The protocol:
as §1, with “Dr. […] Schubert-Zsilavecz (Institute of Pharmaceutical Chemistry, Department of Biochemistry, Chemistry and Pharmacy, Goethe-University Frankfurt am Main, Germany), 0.09 μg per well pFR-Luc (Stratagene, La Jolla, USA) and 0.0005 μg per well pRL-CMV (Promega GmbH, Mannheim, Germany). After 4 h, the transfection medium was replaced and the HEK293T cells were cultured in fresh growth medium for another 24 h. […] After 24 h, 1 ml fresh growth medium was added and the cells were cultured for another 48 h. The PPARγ-dependent transactivation assay in HEK293T cells using a 96-well plate format was performed in quadruple and in HuT-78 cells and Jurkat T cells using a 12-well plate format in triplicate. The PPARγ-dependent” for “The PPARγ-dependent”

Data set [6] concerns HuT-78 cells. Description: Intracellular accumulation by LC-MS/MS, HuT-78 cells. Type of data set: in vitro ADME, human.
Text: as §2

Data set [7] concerns HEK293T cells. As to the kind of experiment: Cell viability, MTT assay, HEK293T cells. The note with it: 24 h. Type of data set: cell-based, human. As to the method: as §3
Data set [8] deals with Jurkat T cells. Description: Cell viability, MTT assay, Jurkat T cells. The data set is classed as cell-based. The protocol: as §3
Where [9] appears, read: HEK293T cells, 24 h, compound alone.

As to `CC(C)C[C@H](NC(=O)OCC1c2ccccc2-c2ccccc21)C(=O)O` [FMOC-L-leucine, N-(9-fluorenylmethoxycarbonyl)-L-leucine], the “antagonistic effects on the time-course of the response to agonist stimulation” value (shortened to “antagonistic effects on the time-course”) on PPARγ [1] (HEK293T cells) is “non-existent antagonistic effects”. Further, the “agonistic effects (transactivation of PPARγ by the compound alone)” value at PPARγ [1] (setting [9]) was “no agonistic effects”.

`O=C(Nc1ccccc1)c1cc([N+](=O)[O-])ccc1Cl` [GW9662, 2-chloro-5-nitrobenzanilide]: the “intracellular accumulation, fold lower compared to MTTB” value in the data set on HEK293T cells [2] (10 μM) was 10 fold. In addition, the “intracellular accumulation, fold less than that of MTTB” value in the data set on Jurkat T cells [3] (10 μM) and in the data set on HuT-78 cells [6] (10 μM) was “about 100 fold” in each case. For the same compound, the “antagonistic effects on the time-course” value on PPARγ [1] (HEK293T cells) was “inhibited the time-course of the response to agonist”. Further, the “inhibition of the rosiglitazone-induced transactivation of PPARγ” value on PPARγ [1] (HEK293T cells, 24 h) is recorded as “full antagonism”; on PPARγ [5] it was “full antagonism”. In addition, the “agonistic effects (transactivation of PPARγ by the compound alone)” value at PPARγ [1] (setting [9]) and on PPARγ [5] (compound alone) was “surprisingly high agonistic effects” each time. In addition, the “concentrations at which clearly cytotoxic” value with HuT-78 cells [4] (MTT, 24 h) is “above 20 μM”; in the data set with Jurkat T cells [8] (MTT, 24 h), > 30 µM. For the same compound, on PPARγ [5] (compound alone, dose-independent), the “PPARγ transactivation by the compound alone” value is reported as “approximately 3 fold”. Further, the “concentrations without cytotoxic effects / loss of viability” value with HEK293T cells [7] is ≤ 30 µM.

Consider `O=C1NC(=O)C(Cc2ccc3cc(OCc4ccccc4F)ccc3c2)S1` (centres unmarked) [MCC-555, netoglitazone], for which the “antagonistic effects on the time-course” value at PPARγ [1] (HEK293T cells) is on record as “non-existent antagonistic effects”. Moreover, the “concentrations that transactivated PPARγ” value on PPARγ [1] (setting [9]) is on record as “above 1 μM”.

In general, IC50 refers to the concentration that gives 50% inhibition. Take `CCCC/C(=C\c1cc(OCc2ccc3nc(C(F)(F)F)cc(OC)c3c2)ccc1OCc1ccc(C(F)(F)F)cc1)C(=O)O` [MTTB, (E)-2-(5-((4-methoxy-2-(trifluoromethyl)quinolin-6-yl)methoxy)-2-((4-(trifluoromethyl)benzyl)oxy)-benzylidene) hexanoic acid]: in the data set on HEK293T cells [2], the “uptake, fold higher than of GW9662” value is 10 fold. The “intracellular accumulation (intracellular as percentage of extracellular concentration)” value with HEK293T cells [2] (10 μM, after 24 h) is recorded as “approximately 25%”; in the data set on Jurkat T cells [3] (10 μM, after 24 h) it was “approximately 10%”; in the data set on HuT-78 cells [6] (10 μM, after 24 h) it was “approximately 10%”. For the same compound, the “intracellular accumulation, fold higher as compared to GW9662” value in the data set with Jurkat T cells [3] and in the data set on HuT-78 cells [6] was “approximately 100 fold” each time. On PPARγ [1], the IC50 is 4.3 µM. Also, the “inhibition of the rosiglitazone-induced transactivation of PPARγ” value on PPARγ [1] (HEK293T cells, 24 h) is on record as “dose-dependent inhibition”; on PPARγ [5], “dose-dependent inhibition”. The “agonistic effects (transactivation of PPARγ by the compound alone)” value on PPARγ [1] (setting [9]) and on PPARγ [5] (compound alone) was “no agonistic effect” throughout. In addition, the “cytotoxicity in contrast to GW9662” value with HuT-78 cells [4] and in the data set on Jurkat T cells [8] was “less cytotoxicity” each time. Also, the “concentrations without cytotoxic effects” value was “up to 10 μM” in the data set on HuT-78 cells [4] (MTT, 24 h) and “up to 10 μM” in the data set with Jurkat T cells [8] (MTT, 24 h). Besides, the “concentrations without cytotoxic effects / loss of viability” value with HEK293T cells [7] is on record as “up to 10 μM”.
